The values that follow come from paper PMC9508812 (2022).

Assay [1] concerns GG1 (DNA, mismatch bulge abasic) CTAACGGAATG/CATTCGGTTAG
Nature of the assay: CD. The settings on record: Na+ 100 mM (NaCl); 10 mM sodium cacodylate pH 7.0, room temperature; 5 µM DNA, 20 µM NCD.

The subject of assay [2] is d(CGG)10 (DNA, repeat) CGGCGGCGGCGGCGGCGGCGGCGGCGGCGG
Nature of the assay: CSI-TOF MS. The settings on record: NH4+ 100 mM (ammonium acetate); 50% aqueous methanol, spray -10 °C; 10 µM DNA, 50 µM NCD.

The test system of assay [3] is GG1 (DNA, mismatch bulge abasic) CTAACGGAATG/CATTCGGTTAG
Nature of the assay: UV melting at 260 nm. The settings on record: Na+ 100 mM (NaCl); 10 mM sodium cacodylate pH 7.0; 5 µM DNA, 20 µM NCD; Tm without and with NCD.

Assay [4] has the same test system. As to the kind of experiment: NMR structure and titration. As to conditions: Na+ 100 mM (NaCl); 20 mM sodium phosphate pH 6.8, 283 K; slow exchange, cooperative.
The test system of assay [5] is GG1 with a T4 hairpin loop (DNA, mismatch bulge abasic) CTAACGGAATGTTTTCATTCGGTTAG
Nature of the assay: CSI-TOF MS. The settings on record: NH4+ 100 mM (ammonium acetate); 50% aqueous methanol, spray -10 °C; 5 µM DNA, 100 µM NCD; 1:1 complex not observed.

The test system of assay [6] is GG1 (DNA, mismatch bulge abasic) CTAACGGAATG/CATTCGGTTAG
As to the kind of experiment: ITC. As to conditions: Na+ 100 mM (NaCl), 10 mM sodium cacodylate pH 7.0, 25 °C, 2.5 µM DNA, 50 µM NCD titrant.

Regarding `Cc1ccc2ccc(NC(=O)OCCCNCCCOC(=O)Nc3ccc4ccc(C)nc4n3)nc2n1`, the binding entry in assay [1], in assay [2], in assay [4] and in assay [5] was “yes” in each case. Moreover, the Tm in assay [3] is 21.8 °C. Also, the “apparent KD” value in assay [6] was found to be 67 nM.
